In series [1] the test system is streptozotocin-induced diabetic rat. Description: STZ diabetic rat model, AGEs and crosslinking of collagen. The class given is in vivo. The following applies: for CML, CEL or pentosidine content of kidney collagen / gain in kidney weight / FL in skin collagen, below untreated diabetic animals / decrease of CML, CEL and fluorescence content of skin collagen toward non-diabetic levels / reduction of half-time for digestion of collagen toward normal / body weight / CML concentration in skin collagen / half-time for pepsin digestion of skin collagen / CEL in renal basement membrane collagen / CML in renal basement membrane collagen / Pentosidine in renal basement membrane collagen: diabetic rats; for FL in skin collagen, below untreated diabetic animals: 1 g/L in drinking water, week 28; for decrease of CML, CEL and fluorescence content of skin collagen toward non-diabetic levels / reduction of half-time for digestion of collagen toward normal: 7 months of diabetes; for body weight: 28 weeks; for CML concentration in skin collagen: drug in drinking water, end of study, untreated diabetic 0.124±0.01, non-diabetic 0.057±0.01; for half-time for pepsin digestion of skin collagen: control 90, untreated diabetic 450; for CEL in renal basement membrane collagen: untreated diabetic 0.08 ±0.01; for CML in renal basement membrane collagen: untreated diabetic 0.25 ± 0.04; for Pentosidine in renal basement membrane collagen: untreated diabetic 3.17 ± 1.10; for decrease in collagen-linked fluorescence toward values in non-diabetic rats: skin collagen. The protocol:
Animal studies. Diabetes was induced by a single tail vein injection of 45 mg/kg of STZ in 0.1 M sodium citrate buffer, pH 4.5. Control animals were sham injected with buffer only. Diabetes was confirmed by measuring blood glucose levels at 2 and 3 days after the STZ-injection. Animals with plasma glucose higher than 16 mM were classified as diabetic. The diabetic rats were divided randomly into an untreated diabetic group (n=12) and two diabetic treatment groups, receiving either PM (n=13) or AG (n=12) at 1 g/L in drinking water. Two non-diabetic control groups were included, one receiving no treatment (n=13), the other receiving PM(HCl)2 at 2 g/L in drinking water (n=12); the higher dose of PM in the PM-treated control group was designed to compensate, in part, for the lower water intake of non-diabetic, compared to diabetic animals. All animals were housed individually with a light dark cycle of 12 hours each, and had free access to food and water. To maintain body weight and to limit hyperglycemia, diabetic animals received 3 IU of ultralente insulin (Humulin U, Eli Lilly) three times per week; this was increased to 5 IU after week 15 to adjust for the increase in body weight.
Glycemic control. Glycemia was monitored by measurement of plasma glucose and glycated hemoglobin every four weeks, using a Sigma Trinder assay Kit (Sigma # 315). Blood (non-fasting) was obtained from the tail vein, using heparinized microhematocrit tubes, followed by sedimentation of red blood cells (RBC) in a bench-top microhematocrit centrifuge. A sample of plasma (5 μL) or glucose standard was mixed with 300 μL of reagent in a 96-well microtiter plate. The plate was shaken for 18 min and the absorbance at 490 nm was measured in a Wallac Victor 1420 multilabel counter (Wallac Inc. Gaithersburg, Md.). Glycated hemoglobin (GlcHb) was measured on whole blood by boronate affinity chromatography using a Sigma kit for total glycated hemoglobin (Sigma # 442-B).
Necropsy and tissue sampling. Rats were treated according to the guidelines of the Institutional Animal Care and Use Committee of the University of South Carolina. Blood was drawn from anaesthetized (halothane) rats by heart puncture and transferred into heparinized vacutainer tubes on ice; an aliquot was removed for analysis of glycated hemoglobin. Rats were then killed by over-anesthetization, and liver and kidneys were removed, the kidney decapsulated, and both organs rinsed in PBS buffer, and weighed. The right kidney was cut in half transversely, and one half was removed for fixation for electron and light microscopy. The remainder of the right kidney and the whole left kidney were frozen at −70° C. until processed for isolation of collagen. Abdominal skin (2 cm^2) was also removed, rinsed in phosphate buffered saline (PBS) and stored at −70° C. Blood was separated into plasma and RBC within 30 minutes by centrifugation in a refrigerated benchtop centrifuge. RBCs were lysed in an equal volume of deionized water, and plasma and RBC lysates were stored at −70° C.
Isolation and analysis of collagen. The insoluble fraction of skin collagen was prepared by scraping the skin with a single-edged razor blade to remove hair and adventitious tissue, followed by a series of extractions with 0.5 M NaCl, 0.5 M acetic acid and chloroform/methanol (2:1 v/v), as described previously (Dyer, et al. 1993. J. Clin. Invest. 91:2463-2469). Total renal collagen was prepared from ˜1.5 kidneys by an adaptation of the procedure of Fox et al. (J. Biol. Chem. 256:9313-9315 (1981)). Briefly, kidneys were minced and homogenized with a hand-held glass homogenizer in 10 mL of ice-cold water, containing 1 mM EDTA and 0.05% sodium azide. Remaining intact cells and subcellular organelles were then lysed by addition of another 15 mL of water, followed by incubation for 1 hour at 4° C., then centrifugation of the lysate for 30 minutes at 10,000 rpm at 4° C. in a Beckman (Palo Alto, Calif.) J-21 centrifuge. […]

Series [2] has as its system glycation of ribonuclease A (RNase). Briefly: Uninterrupted glycation of ribonuclease A with glucose, anti-AGE ELISA. The class given is biochemical, bovine. The following applies: RNase 1 mg/ml, 1.0 M glucose, 6 weeks; inhibitors 0.5, 3, 15 and 50 mM. Here is the method: Uninterrupted Glycation with Glucose Bovine serum albumin, ribonuclease A, and human hemoglobin were incubated with glucose at 37° C. in 0.4 M sodium phosphate buffer of pH 7.5 containing 0.02% sodium azide. The protein, glucose (at 1.0 M), and prospective inhibitors (at 0.5, 3, 15 and 50 mM) were introduced into the incubation mixture simultaneously. Solutions were kept in the dark in capped tubes. Aliquots were taken and immediately frozen until analyzed by ELISA at the conclusion of the reaction. The incubations were for 3 weeks (Hb) or 6 weeks (RNase, BSA).
ELISA detection of AGE products. The general method of Engvall (1981, Methods Enzymol. 70:419-439) was used to perform the ELISA. Typically, glycated protein samples were diluted to approximately 1.5 ug/ml in 0.1 M sodium carbonate buffer of pH 9.5 to 9.7. […] In order to minimize background readings, antibodies R479 used to detect glycated RNase were raised against glycated BSA, and antibodies R618 used to detect glycated BSA and glycated Hb were raised against glycated RNase. […] The p-nitrophenylphosphate substrate solution was then added (200 ul/well) to the plates, with the absorbance of the released p-nitrophenolate being monitored at 410 nm with a Dynatech MR 4000 microplate reader.
On the technique in general: In an ELISA, binding on a coated surface is turned into a signal by an enzyme label.

`N=C(N)NN` [aminoguanidine, reference compound]: in series [1], the “CML, CEL or pentosidine content of kidney collagen” value is given as “not a significant decrease”; the “gain in kidney weight” value was “partially inhibit the gain in kidney weight”; the “FL in skin collagen, below untreated diabetic animals” value is recorded as roughly 12%; the “decrease of CML, CEL and fluorescence content of skin collagen toward non-diabetic levels” value is on record as roughly 50%. Besides, in series [1], the “reduction of half-time for digestion of collagen toward normal” value is reported as roughly 25%, the body weight entry is given as “weighed slightly less than the untreated diabetic group”, the “CML concentration in skin collagen” value is given as 0.10±0.02 mmol/mol lysine and the “half-time for pepsin digestion of skin collagen” value came out at 300 min. Further, in series [1], the “CEL in renal basement membrane collagen” value is on record as 0.07 ± 0.008^C mmol/mol Lys, the “CML in renal basement membrane collagen” value is 0.24 ± 0.05 mmol/mol Lys, the “Pentosidine in renal basement membrane collagen” value is recorded as 2.47 ± 0.64^D μmol/mol Lys and the “decrease in collagen-linked fluorescence toward values in non-diabetic rats” value is reported as roughly 40%.

For the compound `Cc1ncc(CO)c(CN)c1O` [pyridoxamine], the “inhibition of antigenic AGE formation (ELISA)” value in series [2] is given as “more effective that aminoguanidine”. In series [1], the “CML, CEL or pentosidine content of kidney collagen” value is “not a significant decrease”; the “gain in kidney weight” value was “partially inhibit the gain in kidney weight”; the “FL in skin collagen, below untreated diabetic animals” value was roughly 12%; the “decrease of CML, CEL and fluorescence content of skin collagen toward non-diabetic levels” value is roughly 50%. For the same compound, in series [1], the “reduction of half-time for digestion of collagen toward normal” value is recorded as roughly 25%, the body weight entry is on record as “weighed slightly less than the untreated diabetic group”, the “CML concentration in skin collagen” value was 0.092±0.02 mmol/mol lysine and the “half-time for pepsin digestion of skin collagen” value was determined as 350 min. In series [1], the “CEL in renal basement membrane collagen” value came to 0.08 ± 0.008 mmol/mol Lys, the “CML in renal basement membrane collagen” value stood at 0.23 ±0.03 mmol/mol Lys, the “Pentosidine in renal basement membrane collagen” value turned out to be 3.00 ± 0.90 μmol/mol Lys and the “decrease in collagen-linked fluorescence toward values in non-diabetic rats” value was roughly 40%.

As to `Cc1ncc(C[n+]2csc(CCO[P@](=O)(O)OP(=O)(O)O)c2C)c(N)n1` [thiamine pyrophosphate], the “inhibition of antigenic AGE formation (ELISA)” value in series [2] is reported as “more effective that aminoguanidine”.

These data come from patent US6716858B1, “Methods for inhibiting diabetic complications” (Kansas University Medical Center, priority 1995, dated 2004).
